Laboratory results taken from patent US10420815B2, “Combinational therapy for synergistic inhibition of gram-positive and gram-negative bacteria” (priority 2015, dated 2019).
Where two headings read alike, the source gives them in different places. Values belong to the molecule of their own block, whether it stands above or below them.

Key:
Format in all cases: cell-based, Staphylococcus aureus
MRSA 3865 = assay: microbe, parasite or virus in culture
Text: (§1) MRSA (ATCC 33593), MSSA (ATCC 29213), and MRSA USA300 (BAA-1680) strains were purchased from the American Type Culture Collection (ATCC; Manassas, Va.). Eight clinical isolates of MRSA were obtained from the Culture Collection of Antimicrobial Resistant Microbes, Korea National Research Resource Center (KNRRC). Salmonella enterica Typhimurium LT2 was purchased from ATCC, and Escherichia coli O157:H7 is a kind gift from Dr. Sangryeol Ryu (Seoul National University, South Korea). All S. aureus strains were maintained in Trypticase Soy (TS) medium, and E. coli O157:H7 and Salmonella were routinely grown aerobically on Luria-Bertani (LB) media at 37° C. For measuring growth kinetics, an overnight culture of MRSA in Mueller-Hinton (MH) broth was diluted 100-fold in fresh MH broth and cultured until early exponential phase. The culture (200 μl) was transferred to each well of a sterile 96-well plate and incubated at 37° C. with bacitracin alone, alkyl gallate alone, and combination of bacitracin/alkyl gallates at various concentrations. The optical density at 600 nm (OD600) was measured every hour with FLUOstar® Omega (BMG Labtech, Germany).
(§2) Broth micro dilution assays were performed to determine the minimum inhibitory concentrations (MIC) accordance to the M7-A7 protocol of the Clinical and Laboratory Standards Institute (CLSI) guidelines^28. The susceptibility test was carried out with an initial bacterial inoculum of 1.5×10^5 CFU ml^−1. Alkyl gallates and bacitracin were serially diluted in a polystyrene 96 well plate and the plate was incubated at 37° C. for 24 h. Minimum bactericidal concentration (MBC) was determined by spotting 10 μl of cultures from MIC tests onto MH agar and incubated aerobically at 37° C.

MRSA 3903 = assay: microbe, parasite or virus in culture
Text: as §1, §2

MRSA 3823 = assay: microbe, parasite or virus in culture
Text: as §1, §2

MRSA 3095 = assay: microbe, parasite or virus in culture; settings: Staphylococcus aureus; MRSA 3095 (human/skin); read-out: MIC
Text: as §1, §2

MRSA 3795 = assay: microbe, parasite or virus in culture
Text: as §1, §2

MRSA 3876 = assay: microbe, parasite or virus in culture
Text: as §1, §2

MRSA 3799 = assay: microbe, parasite or virus in culture
Text: as §1, §2

MRSA (ATCC 33593) = assay: microbe, parasite or virus in culture; settings: for MIC: Staphylococcus aureus
Text: as §1, §2
(§3) MICs were determined with MRSA and methicillin-sensitive S. aureus (MSSA) using a broth dilution method as described above.
(§4) MRSA and MSSA were cultured overnight with antioxidants (0.5 μg/ml) and bacitracin at various concentrations and 10 μL of the culture was spotted on MH agar plates and incubated aerobically at 37° C. to observe the bacterial viability. The results in FIGS. 9A, 9B, 9C and 9D (photographs of plates) show the Minimal Bactericidal Concentrations (MBCs) for indicated antioxidants. Bacitracin killed MRSA and MSSA at concentrations greater than or equal to 2 μg/mi.

MSSA (ATCC 29213) = assay: MIC (broth dilution) and MBC (spotting) of phenolic antioxidants and bacitracin; settings: for MIC: antioxidant alone
Text: as §1, §2, §3, §4

MRSA 3A585 = assay: microbe, parasite or virus in culture
Text: as §1, §2

[1] = tested on: MRSA (normal MRSA strain, not USA300); assay: MRSA growth (optical density) with bacitracin and phenolic antioxidants
Text: as §1
MRSA were grown with bacitracin (0.002 μg/mL) with antioxidant (as shown) at 0.5 μg/mL.
FIG. 7A is growth with no added bacitracin or lauryl gallate.
The optical density of MRSA was measured after 18 h culture with bacitracin (0.002 μg/ml) and antioxidants (as indicated at 0.5 μg/ml). Also measured were controls with no additions, with bacitracin alone and with antioxidant alone. FIGS. 8A, 8B, 8C and 8D are graphs illustrating the results.

[2] = Staphylococcus aureus, MRSA 3865 (human/skin), read-out: MIC
[3] = Staphylococcus aureus, MRSA 3903 (human/skin), read-out: MIC
[4] = Staphylococcus aureus, MRSA 3823 (human/nose), read-out: MIC
[5] = Staphylococcus aureus, MRSA 3795 (human/nose), read-out: MIC
[6] = Staphylococcus aureus, MRSA 3876 (human/skin), read-out: MIC
[7] = Staphylococcus aureus, MRSA 3799 (human/nose), read-out: MIC
[8] = MRSA, antioxidant alone, read-out: MIC
[9] = Staphylococcus aureus, read-out: MIC

Molecule: CCn1cc(C(=O)O)c(=O)c2cc(F)c(N3CCNCC3)cc21 [NOR, norfloxacin]
MIC (MRSA 3865; [2]): ≥ 128 µg/mL
MIC (MRSA 3903; [3]): 64 µg/mL
MIC (MRSA 3823; [4]): 32 µg/mL
MIC (MRSA 3095): ≥ 128 µg/mL
MIC (MRSA 3795; [5]): 0.5 µg/mL
MIC (MRSA 3876; [6]): 0.25 µg/mL
MIC (MRSA 3799; [7]): 0.25 µg/mL

Molecule: Cc1onc(-c2ccccc2)c1C(=O)N[C@@H]1C(=O)N2[C@@H]1SC(C)(C)[C@@H]2C(=O)O [OXA, oxacillin]
MIC (MRSA 3865; [2]): 128 µg/mL
MIC (MRSA 3903; [3]): ≥ 128 µg/mL
MIC (MRSA 3823; [4]): 128 µg/mL
MIC (MRSA 3095): ≥ 64 µg/mL
MIC (MRSA 3A585; Staphylococcus aureus, MRSA 3A585 (human/blood), read-out: MIC): > 2 µg/mL
MIC (MRSA 3795; [5]): ≥ 128 µg/mL
MIC (MRSA 3876; [6]): 128 µg/mL
MIC (MRSA 3799; [7]): ≥ 128 µg/mL

Molecule: COc1cc(/C=C/C(=O)O)cc(OC)c1O [Sinapic acid, sinapic acid]
MIC (MRSA (ATCC 33593)): > 1020 µg/mL
MIC (MSSA (ATCC 29213); [9]): > 1020 µg/mL

Molecule: CN(C)[C@@H]1C(O)=C(C(N)=O)C(=O)[C@@]2(O)C(O)=C3C(=O)c4c(O)cccc4[C@@](C)(O)[C@H]3C[C@@H]12 [TET, tetracycline]
MIC (MRSA 3865; Staphylococcus aureus, MRSA): 32 µg/mL
MIC (MRSA 3903; Staphylococcus aureus, MRSA): 128 µg/mL
MIC (MRSA 3823; Staphylococcus aureus, MRSA): 64 µg/mL
MIC (MRSA 3A585; Staphylococcus aureus, MRSA): ≥ 8 µg/mL
MIC (MRSA 3795; Staphylococcus aureus, MRSA): 16 µg/mL
MIC (MRSA 3876; Staphylococcus aureus, MRSA): 16 µg/mL
MIC (MRSA 3799; Staphylococcus aureus, MRSA): 64 µg/mL

Molecule: O=C(OC[C@H]1O[C@@H](OC(=O)c2cc(O)c(O)c(OC(=O)c3cc(O)c(O)c(O)c3)c2)[C@H](OC(=O)c2cc(O)c(O)c(OC(=O)c3cc(O)c(O)c(O)c3)c2)[C@@H](OC(=O)c2cc(O)c(O)c(OC(=O)c3cc(O)c(O)c(O)c3)c2)[C@@H]1OC(=O)c1cc(O)c(O)c(OC(=O)c2cc(O)c(O)c(O)c2)c1)c1cc(O)c(O)c(OC(=O)c2cc(O)c(O)c(O)c2)c1 [Tannic acid, tannic acid]
fold decrease of bacitracin MBC by antioxidant (MRSA (ATCC 33593); MRSA, antioxidant 0.5 μg/ml, compared to bacitracin alone): 4 fold
MIC (MRSA (ATCC 33593)): 512 µg/mL
MIC (MRSA (ATCC 33593); [8]): 1020 µg/mL
growth of MRSA with bacitracin plus antioxidant ([1]; bacitracin 0.002 μg/mL, antioxidant 0.5 μg/mL, FIG. 6): significantly inhibited the growth of MRSA
optical density of MRSA after 18 h culture: inhibition of growth in combination with bacitracin ([1]; bacitracin 0.002 μg/ml (ca. 0.0002 U), antioxidant 0.5 μg/ml, 18 h, FIG. 8): significantly inhibited MRSA
MIC (MSSA (ATCC 29213); [9]): 256 µg/mL
fold decrease of bacitracin MBC by antioxidant (MSSA (ATCC 29213); antioxidant 0.5 μg/ml, compared to bacitracin alone): 8 fold
MIC (MSSA (ATCC 29213)): 128 µg/mL

Molecule: gentamicin
MIC (MRSA 3865; MRSA 3865 (human/skin)): 32 µg/mL
MIC (MRSA 3903; MRSA 3903 (human/skin)): ≥128 µg/mL
MIC (MRSA 3823; MRSA 3823 (human/nose)): ≥128 µg/mL
MIC (MRSA 3A585; MRSA 3A585 (human/blood)): ≥8 µg/mL
MIC (MRSA 3795; MRSA 3795 (human/nose)): ≥128 µg/mL
MIC (MRSA 3876; MRSA 3876 (human/skin)): 32 µg/mL
MIC (MRSA 3799; MRSA 3799 (human/nose)): 32 µg/mL

Molecule: penicillin
MIC (MRSA 3865; MRSA 3865 (human/skin)): 16 µg/mL
MIC (MRSA 3903; MRSA 3903 (human/skin)): 32 µg/mL
MIC (MRSA 3823; MRSA 3823 (human/nose)): 16 µg/mL
MIC (MRSA 3795; MRSA 3795 (human/nose)): 16 µg/mL
MIC (MRSA 3876; MRSA 3876 (human/skin)): 16 µg/mL
MIC (MRSA 3799; MRSA 3799 (human/nose)): 8 µg/mL

The remaining lines, values ahead:

MIC (MRSA (ATCC 33593); [8]): > 1020 µg/mL
MIC (MSSA (ATCC 29213); [9]): > 1020 µg/mL
Molecule: O=C1C[C@@H](c2ccc(O)cc2)Oc2cc(O)cc(O)c21 [Narigenine, naringenin]

MIC (MRSA (ATCC 33593); [8]): > 1020 µg/mL
MIC (MSSA (ATCC 29213); [9]): > 1020 µg/mL
Molecule: O=c1c(O)c(-c2ccc(O)c(O)c2)oc2cc(O)cc(O)c12 [Quercetin, quercetin]

MIC (MRSA (ATCC 33593); [8]): > 1020 µg/mL
MIC (MSSA (ATCC 29213); [9]): > 1020 µg/mL
Molecule: O=C(O)c1ccccc1O [Salicylic acid, salicylic acid]

MIC (MRSA (ATCC 33593); [8]): > 1020 µg/mL
MIC (MSSA (ATCC 29213); [9]): > 1020 µg/mL
Molecule: O=C1c2c(O)cc(O)cc2O[C@H](c2ccc(O)c(O)c2)[C@H]1O [Taxifolin, taxifolin]

MIC (MRSA (ATCC 33593); [8]): > 1020 µg/mL
MIC (MSSA (ATCC 29213); [9]): > 1020 µg/mL
Molecule: COc1cc(C(=O)O)ccc1O [Vanillic acid, vanillic acid]
